Data on six compounds can be found in patent US5326786A, “5,6,7,9-tetrahydro-1,2,3-trimethoxy-9-oxobenzo[alpha]heptalene derivative and pharmaceutical use” (Ohgen Research Laboratories Ltd., priority 1992, dated 1994).

Data set [1] deals with adriamycin-resistant mouse leukemic cells p388/ADR. As to the kind of experiment: In vitro cancer cell proliferation inhibiting test (1). The format is cell-based. Conditions: 48 h, read-out: IC50 (50% proliferation inhibitory concentration), RPMI 1640 with 10% fetal bovine serum, cultured for 2 days. The procedure: (§1) (1) 10^6 each of mouse leukemic cells p388/S and adriamycin-resistant mouse leukemic cells p388/ADR are suspended in RPMI 1640 media each containing 10% fetal bovine serum, respectively, and cultured for 2 days in the presence of a test compound (this was used after it was dissolved in dimethylsulfoxide to 1 mg/ml and the solution was diluted with a phosphate buffer).

For data set [2], the system named is p388/S mouse leukemic cells. Described as above. The format is cell-based. Conditions: 48 h, read-out: IC50 (50% proliferation inhibitory concentration), RPMI 1640 with 10% fetal bovine serum, cultured for 2 days. The procedure:
as §1

The next data set in a line: Acute toxicity test. Conditions: mouse, in vivo, ip; intraperitoneal; CDF male mice; 10 days observation; Litchfield Wilcoxon method; printed interval 233 to 310 mg/kg. The format is in vivo, mouse.
The test system of another data set is CDF male mice. Nature of the data set: Acute toxicity test. Format: in vivo, mouse. Conditions: intraperitoneal.
The conditions of data set [3]: known compounds, background; cited from earlier work.
Another data set deals with cancer cells. Conditions: known compounds, background; cited from earlier work.
Data set [4] has as its system adriamycin-resistant mouse leukemic cells p388/ADR. Nature of the data set: In vitro cancer cell proliferation inhibiting test (2), Trypan Blue living cell count. The format is cell-based. The procedure:
(§2) (2) Mouse leukemic cells p388/S and adriamycin-resistant mouse leukemic cells P388/ADR subculturally transplanted in the abdominal cavity of mice were taken out together with the asites therefrom, respectively, and after washing, suspended in RPMI 1640 media (each containing 10% fetal bovine serum and 10 μM 2-mercaptoethanol) to 2×10^5 cells/ml, respectively.
(§3) Test solutions (solutions of the compound of the later-described Example 3 in phosphate-buffered physiological saline) were added to portions of each of these cell suspensions, respectively; and the mixtures were separately put into a 24-well culture plate and subjected to culture for 2 days in a 5% carbon dioxide culturing vessel.

For data set [5], the system named is p388/S mouse leukemic cells. Described as above. The format is cell-based. The procedure: as §2, §3

Molecules are shown by their SMILES. Converted amounts (≈) assume the structure as drawn. “And” between values parts separate entries of the source, which are not always exact repeats. Equal entries are not always repeated. Structures can show the parent of a compound that is named as a salt.

A word on the LD50: it is the dose expected to kill half of the subjects tested.

For the compound `COc1cc2c(c(OC)c1OC)-c1ccc(OC)c(=O)cc1C(NCC1COC(C)(C)O1)CC2` (racemic) [DL-N-(O,O-isopropylideneglyceryl)deacetylcolchicine], the figures for the IC50 in data set [1] and in data set [2] were 0.13 µg/mL (≈ 0.276 µM) and 0.013 µg/mL (≈ 0.0276 µM), respectively.

As to `COc1cc2c(c(OC)c1OC)-c1ccc(OC)c(=O)cc1C(NC[C@@H]1COC(C)(C)O1)CC2` (stereo partly drawn) [Example 3, L-N-(O,O-isopropylideneglycerol)deacetylcolchicine], the IC50 in data set [1] was determined as 0.14 µg/mL (≈ 0.297 µM); in data set [2], 0.018 µg/mL (≈ 0.0382 µM). Further, the LD50 at 240 h in “Acute toxicity test” is 269 mg/kg. Moreover, the body weight change result with CDF male mice (10 days observation) is on record as “tended to decrease up to 2 to 4 days after administration, but thereafter increased gradually”. Also, in the data set with CDF male mice (high administration groups, on and after one day after administration), the acute toxicity symptoms entry is “the lie of hair got worse on and after one day after administration, and cases where diarrhea or loss of hair arose were also observed”.

Turning to `COc1cc2c(c(OC)c1OC)-c1ccc(OC)c(=O)cc1C(NC[C@H]1COC(C)(C)O1)CC2` (stereo partly drawn) [D-N-(O,O-isopropylideneglyceryl)deacetylcolchicine], the IC50 in data set [1] turned out to be 0.038 µg/mL (≈ 0.0806 µM); in data set [2] it was 0.014 µg/mL (≈ 0.0297 µM).

For the compound `COc1cc2c(c(OC)c1OC)-c1ccc(OC)c(=O)cc1[C@@H](NC(C)=O)CC2` [Colchicine, colchicine], the toxicity result in data set [3] is “strong toxicity”. In the data set with cancer cells, the carcinostatic action entry is reported as “no sufficient carcinostatic action”.

As to `CNc1ccc2c(cc1=O)C(NCC1COC(C)(C)O1)CCc1cc(OC)c(OC)c(OC)c1-2` (centres unmarked) [N'-(O,O-isopropylideneglyceryl)-N-methyldeacetylcolchiceinamide tartrate salt], the “IC50 (50% proliferation inhibitory concentration), P388/ADR” value in data set [4] (2 days, experiment carried out three times, one value per experiment, tartrate salt) was 0.0164 µg/mL and 0.0192 µg/mL. Besides, the IC50 in data set [4] (Mus musculus, 48 h, read-out: IC50 (50% proliferation inhibitory concentration), P388/ADR, 2 days, experiment carried out three times, one value per experiment) came out at 0.018 µg/mL; in data set [5] (Mus musculus, P388/S, 48 h, read-out: IC50 (50% proliferation inhibitory concentration), p388/S, 2 days, experiment carried out three times, one value per experiment), 0.0135 µg/mL. Also, in data set [5] (p388/S, 2 days, experiment carried out three times, one value per experiment, tartrate salt), the “IC50 (50% proliferation inhibitory concentration), p388/S” value was 0.0128 µg/mL and 0.0149 µg/mL.

As for `CNc1ccc2c(cc1=O)[C@@H](NC(C)=O)CCc1cc(OC)c(OC)c(OC)c1-2` [N-methylcolchiceinamide], the toxicity entry in data set [3] is listed as “strong toxicity”. Also, in the data set on cancer cells, the carcinostatic action result is “no sufficient carcinostatic action”.
